From publication PMC10050881 come the findings set out here.

In assay [1] the target is T1, PEDV Mpro (main protease, 3CL protease) (Porcine epidemic diarrhea virus CV777, UniProt P0C6Y4).
T1 construct: gene rep; mature nsp5 main protease cut from replicase polyprotein 1a/1ab; recombinant N-terminal GST fusion, GST tag removed with PreScission protease; expression as in Li et al., 2020; PDB 4XFQ only for docking
T1 sequence (P0C6Y4 2998-3299 limits assumed): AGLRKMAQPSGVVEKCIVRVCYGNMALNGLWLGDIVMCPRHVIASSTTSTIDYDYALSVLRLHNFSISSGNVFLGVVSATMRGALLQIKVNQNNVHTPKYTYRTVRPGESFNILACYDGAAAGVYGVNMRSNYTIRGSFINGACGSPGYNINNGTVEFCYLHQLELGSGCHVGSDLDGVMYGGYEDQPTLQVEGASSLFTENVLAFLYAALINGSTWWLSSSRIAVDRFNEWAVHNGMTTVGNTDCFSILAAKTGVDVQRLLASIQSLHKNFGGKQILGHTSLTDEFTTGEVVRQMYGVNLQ
Nature of the assay: FRET inhibition assay. It is filed as biochemical.

For assay [2], the target named is T1, PEDV Mpro (main protease, 3CL protease). Nature of the assay: surface plasmon resonance (OpenSPR), Mpro immobilised. As to conditions: read-out: KD (affinity constant). In kind it is binding. For orientation: Surface plasmon resonance follows binding to a sensor surface in real time, without labels.

SMILES strings stand for the structures.

As to `COc1c(O)cc(O)c2c(=O)cc(-c3ccccc3)oc12` [wogonin], the IC50 in assay [1] is 19.4 µM. Besides, the Kd in assay [2] was determined as 16 µM.

The term IC50 denotes the concentration needed to halve the response being measured. The low end stands for inhibition by little substance, the high end for a need for much substance. For orientation: Kd means the concentration at which binding is half-saturated.
